US20220304953A1, “PHARMACEUTICAL DOSAGE FORM COMPRISING METFORMIN AND CALCIUM CITRATE” (DSM IP ASSETS B.V., priority 2019, published 2022)

Legend:
[1] = compared to calcium carbonate; cited from earlier work
[2] = Tablet hardness (Krämer UTS4 1, force needed to break a tablet axially); assay type: physicochemical; conditions: tablets of example 2 with the named calcium salt, Prosolv SMCC90 binder; in words
Method: For compressing the tablets, a single punch press (Korsch XP-1, available at Korsch, Berlin) was used.
Tablet hardness was then measured using a Krämer UTS4 1 apparatus.
Said four tablet mixtures were compressed into tablets, similar to example 2. Tablet hardness was then measured.
Tablet hardness was measured as described in USP <1217> and EP<2.9.8.> with a Krämer UTS4 1 tester (Kraemer Elektronik GmbH, Darmstadt, Germany). The inventors measured the force needed to break a tablet axially. Presented are the average values of 10 measurements.

Molecule	bioavailability [1]	tablet hardness (compression profiles, FIG. 1) [2]
O=C([O-])CC(O)(CC(=O)[O-])C(=O)[O-].O=C([O-])CC(O)(CC(=O)[O-])C(=O)[O-].[Ca+2].[Ca+2].[Ca+2] [calcium citrate]	superior bioavailability than calcium carbonate	–
anhydrous calcium citrate	–	a lot worse
